Among the data in US5783597A, “2,5-disubstituted thiophenes: inhibitors of 5-lipoxygenase and inducible cyclooxygenase (COX-2) enzymes, composition and use” (Ortho Pharmaceutical Corporation, priority 1997, dated 1998) are IC50 and inhibition values, retold here.

In assay [1] the target is T1, 5-lipoxygenase (5-LO) (Rattus norvegicus, UniProt P12527).
T1 construct: endogenous in cells; host or cells: intact RBL-1 (rat basophilic leukemia) cells, stimulated with calcium ionophore A23187
T1 sequence (P12527 1-673): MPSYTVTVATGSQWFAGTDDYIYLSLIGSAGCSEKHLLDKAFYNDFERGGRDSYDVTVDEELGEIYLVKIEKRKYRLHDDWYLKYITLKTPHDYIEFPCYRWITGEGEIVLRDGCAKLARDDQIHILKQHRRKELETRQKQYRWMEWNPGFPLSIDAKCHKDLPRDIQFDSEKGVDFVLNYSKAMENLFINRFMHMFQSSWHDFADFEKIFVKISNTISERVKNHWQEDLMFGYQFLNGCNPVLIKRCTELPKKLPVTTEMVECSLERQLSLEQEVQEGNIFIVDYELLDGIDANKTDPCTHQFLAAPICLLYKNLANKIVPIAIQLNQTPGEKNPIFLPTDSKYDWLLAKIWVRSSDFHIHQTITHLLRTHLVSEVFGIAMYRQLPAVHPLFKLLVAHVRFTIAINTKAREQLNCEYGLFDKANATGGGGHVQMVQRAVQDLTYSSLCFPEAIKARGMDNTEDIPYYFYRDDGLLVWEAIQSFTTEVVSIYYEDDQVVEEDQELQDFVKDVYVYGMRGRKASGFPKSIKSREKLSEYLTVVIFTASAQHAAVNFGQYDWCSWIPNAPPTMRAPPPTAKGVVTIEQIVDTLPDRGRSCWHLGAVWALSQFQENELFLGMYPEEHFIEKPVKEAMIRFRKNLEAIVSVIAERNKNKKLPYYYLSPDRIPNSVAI
Briefly: RBL-1 cell 5-lipoxygenase and cyclooxygenase - Homogenate (Procedure I). In kind it is biochemical. The conditions noted are these: RBL-1 homogenate supernatant, 5-HETE; read-out: Procedure I (5-LO) Homog. IC50. How it is done: RBL-1 cell 5-lipoxygenase and cyclooxugenase - Homogenate
Rat basophilic leukemia cells (RBL-1; 5×10^7 viable cells/mL) were disrupted by homogenization on ice (four 20 sec bursts) with a Brinkman polytron. […] The homogenate was then centrifuged at 9,220×g for 48 minutes at 4° C. The pellet was discarded and the supernatant was saved as the source of enzymes. The supernatant was pre-incubated for five minutes at 37° C. in the presence of 2 mM of CaCl2 and compound or vehicle (1% DMSO). The conversion of AA into products by CO and LO was initiated by adding 10 μL (50 μCi) of 1-^14 C-AA to each tube and incubated at 37° C. for 20 minutes. The reaction was stopped by adjusting the pH of each sample to 3 to 3.5 with 2M formic acid. Samples were extracted with three volumes of chloroform to isolate the products of 5-LO formed during the reaction. Fractions were dried under nitrogen, then resuspended in 40 μL of chloroform and spotted onto silica gel HL plates. The plates were developed in A-9 solvent. The dried plates were analyzed using a Bioscan Imaging TLC scanner to determine the percentage of radiolabelled M converted to 5-HETE (LO product) and PGD2 (CO product) in each sample.

Assay [2] deals with T1, 5-lipoxygenase (5-LO). Description: RBL-1 cell 5-lipoxygenase and cyclooxygenase - Whole cells (Procedure II). The conditions noted are these: intact RBL-1 cells, 5-HETE; read-out: Procedure II (5-LO) Wh Cell IC50. In kind it is cell-based. How it is done: RBL-1 Cell 5-Lipoxygenase and cyclooxygenase - Whole cells
The ability to inhibit 5-LO and CO in intact RBL-1 cells was also evaluated. […] Cells were collected by centrifugation, washed once in HBSS, and resuspended at a concentration of 1×10^5 cells/mL. Cells were incubated in the presence of vehicle or drug then centrifuged at 800×g for 10 minutes at 4° C. The supernatant was removed by aspiration and the cells were resuspended in 0.5 mL of HBSS. […] The conversion of M to 5-LO products was initiated by the addition of 10 μL (50 uCi) of 1-^14 C-AA. Products were isolated by acidification and extraction, followed by thin layer chromatography analysis as described above. Radioactive areas corresponding to authentic 5-LO (5-HETE) and CO (PGD2) products were quantitated by the Bioscan 2000 Imaging System.

The target of assay [3] is T2, Human Prostaglandin H2 Synthase Typ II (Cox-2) (Homo sapiens, UniProt P35354).
T2 construct: endogenous in cells; host or cells: ECV-304 cells treated with PMA and ionomycin for 16 hours
T2 sequence (P35354 18-604): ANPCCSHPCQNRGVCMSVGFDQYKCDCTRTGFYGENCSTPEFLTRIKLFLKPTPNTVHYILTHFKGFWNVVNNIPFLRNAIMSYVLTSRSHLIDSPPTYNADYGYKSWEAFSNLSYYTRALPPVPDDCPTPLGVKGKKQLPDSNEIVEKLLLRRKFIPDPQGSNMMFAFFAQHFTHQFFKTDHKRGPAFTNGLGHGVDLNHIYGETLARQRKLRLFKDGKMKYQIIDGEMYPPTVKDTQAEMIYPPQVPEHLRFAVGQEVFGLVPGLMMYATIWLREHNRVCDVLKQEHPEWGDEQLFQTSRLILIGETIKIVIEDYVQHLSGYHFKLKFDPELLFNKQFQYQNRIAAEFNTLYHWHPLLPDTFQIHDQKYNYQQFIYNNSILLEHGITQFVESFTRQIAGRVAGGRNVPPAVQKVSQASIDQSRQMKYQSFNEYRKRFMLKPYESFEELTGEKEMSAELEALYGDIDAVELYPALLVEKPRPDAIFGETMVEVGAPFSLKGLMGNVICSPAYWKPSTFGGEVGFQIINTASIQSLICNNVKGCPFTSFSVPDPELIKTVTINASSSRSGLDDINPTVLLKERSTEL
Description: Human Prostaglandin H2 Synthase Typ II (Cox-2) Whole Cell Assay, ECV-304 cells (Procedure III). Format: cell-based. The conditions noted are these: @ 10 μM, ECV-304 whole cells; read-out: Procedure III (COX-2) Wh Cell, percent inhibition of PGE2 produced. How it is done: Human Prostaglandin H2 Synthase Typ II (Cox-2) Whole Cell Assay (Multiple Concentrations)
ECV-304 (human, endothelial, umbilical cord) cells are maintained in culture in a suitable medium, and are trypsinized and plated at a density of 1×10^6 cells per well of a 6 well plate prior to assay. Approximately 28 hours later, 50 μg/ml PMA and […] ionomycin (both final concentrations) are added to each well and incubated for an additional 16 hours. Vehicle or test compounds are incubated with the cells for five minutes prior to initiation of Cox-2 enzyme activity by the addition of 30 μM arachidonic acid. Ten minutes later, an aliquot of the supernatant is withdrawn and the amount of PGE2 present quantitated by radioimmunoassay. Activity, reported as percent inhibition of PGE2 produced, is calculated as follows: […]

Turning to `CS(=O)(=O)Nc1ccc(Oc2cc(C(F)(F)F)cc(C(F)(F)F)c2)s1` [Example 18], the 50% inhibitory concentration (IC50) was 310 nM at 5-lipoxygenase (5-LO) [1] and 6500 nM on 5-lipoxygenase (5-LO) [2]. In assay [3], the inhibition at 10 µM was found to be 8%.
Taken in the same sequence, the figures for `CS(=O)(=O)Nc1ccc(-c2ccccc2)s1` [Example 33, N-5-[phenyl-thien-2-yl]methanesulfonamide] were 110 nM, 790 nM and 31%.
